This passage reports EC50 results from patent US9504690B2, “Tetracyclic xanthene derivatives and methods of use thereof for the treatment of viral diseases” (Merck Sharp & Dohme Corp., priority 2011, dated 2016).

For one test, the system named is HCV replicon 4a WT. Kind of test: Cell-based HCV replicon assay, 4a WT. The conditions noted are these: Hepatitis C virus, 72 h; replicon cells, harvested day 3, replicon RNA by real time PCR (Taqman). As for the experimental part:
(§1) To measure cell-based anti-HCV activity of selected compounds of the present invention, replicon cells were seeded at 5000 cells/well in 96-well collagen I-coated Nunc plates in the presence of the test compound. Various concentrations of test compound, typically in 10 serial 2-fold dilutions, were added to the assay mixture, with the starting concentration ranging from 250 μM to 1 μM. The final concentration of DMSO was 0.5%, fetal bovine serum was 5%, in the assay media. Cells were harvested on day 3 by the addition of 1× cell lysis buffer (Ambion cat #8721). The replicon RNA level was measured using real time PCR (Taqman assay). The amplicon was located in 5B. The PCR primers were: 5B.2F, ATGGACAGGCGCCCTGA (SEQ. ID. NO. 1); 5B.2R, […] (SEQ. ID. NO. 2); the probe sequence was FAM-labeled CACGCCATGCGCTGCGG (SEQ. ID. NO. 3). GAPDH RNA was used as endogenous control and was amplified in the same reaction as NS5B (multiplex PCR) using primers and VIC-labeled probe recommended by the manufacturer (PE Applied Biosystem). The real-time RT-PCR reactions were run on ABI PRISM 7900HT Sequence Detection System using the following program: 48° C. for 30 minutes, 95° C. for 10 minutes, 40 cycles of 95° C. for 15 sec, 60° C. for 1 minutes. The ΔCT values (CT5B-CTGAPDH) were plotted against the concentration of test compound and fitted to the sigmoid dose-response model using XLfit4 (MDL). […] Alternatively, to quantitate the absolute amount of replicon RNA, a standard curve was established by including serially diluted T7 transcripts of replicon RNA in the Taqman assay. All Taqman reagents were from PE Applied Biosystems. Such an assay procedure was described in detail in e.g. Malcolm et al., Antimicrobial Agents and Chemotherapy 50: 1013-1020 (2006).
(§2) HCV replicon assay data was calculated for selected compounds of the present invention using this method and is provided in the table below.
On the technique in general: In antiviral work, replicon cells carry a viral genome segment that copies itself.

The next test concerns HCV replicon 1a WT. Kind of test: Cell-based HCV replicon assay, 1a WT. As to conditions: Hepatitis C virus, 72 h; replicon cells, harvested day 3, replicon RNA by real time PCR (Taqman). The procedure: as §1, §2
For the next test, the system named is HCV replicon 2a WT. The test can be described thus: Cell-based HCV replicon assay, 2a WT. As to conditions: Hepatitis C virus, 72 h; replicon cells, harvested day 3, replicon RNA by real time PCR (Taqman). As for the experimental part:
as §1, §2

The next test deals with HCV replicon 3a WT. The test can be described thus: Cell-based HCV replicon assay, 3a WT. The conditions noted are these: Hepatitis C virus, 72 h; replicon cells, harvested day 3, replicon RNA by real time PCR (Taqman). The procedure: as §1, §2
Another test deals with HCV replicon 1b WT. The test can be described thus: Cell-based HCV replicon assay, 1b WT. As to conditions: Hepatitis C virus, 72 h; replicon cells, harvested day 3, replicon RNA by real time PCR (Taqman). As for the experimental part: as §1, §2
The next test concerns HCV replicon 1a Y93H. The test can be described thus: Cell-based HCV replicon assay, 1a Y93H. The conditions noted are these: Hepatitis C virus, 72 h, read-out: Replicon EC50 1a Y93H. The procedure:
as §1, §2

Another test has as its system HCV replicon 2b WT. Kind of test: Cell-based HCV replicon assay, 2b WT. As to conditions: Hepatitis C virus, 72 h; replicon cells, harvested day 3, replicon RNA by real time PCR (Taqman). As for the experimental part: as §1, §2

Usually EC50 stands for the concentration needed to bring the measured effect to its halfway point.

Consider `COC(=O)N[C@H](C(=O)N1CCC[C@H]1c1ncc(-c2ccc3c(c2)Oc2ccc(-c4cnc([C@@H]5CCCN5C(=O)[C@@H](NC(=O)OC)C(C)(C)C)[nH]4)c4ccn-3c24)[nH]1)C(C)(C)C` [Compound 2, Methyl [(2S)-1-{(2S)-2-[5-(3-(2-[(2S)-1-(2S)-2-[(methoxycarbonyl)amino]-3,3-di-methylbutanoyl}pyrrolidin-2-yl]-1H-imidazol-5-ylpyrrolo[3,2,1-kl]phenoxazin-8-yl)-1H-imidazol-2-yl]pyrrolidin-1-yl)-3,3-dimethyl-1-oxobutan-2-yl]carbamate], for which the concentration for a half-maximal effect (EC50) in the test with HCV replicon 4a WT came out at 4.91 nM; with HCV replicon 1a WT, 0.0736 nM; with HCV replicon 2a WT, 0.018 nM; with HCV replicon 3a WT, 1.26 nM; in the test with HCV replicon 1b WT it was 0.00443 nM; in the test on HCV replicon 1a Y93H, 454 nM.

As for `COC(=O)N[C@@H](C(=O)N1CCC[C@H]1c1ncc(-c2ccc3c(c2)Oc2ccc(-c4cnc([C@@H]5CCCN5C(=O)[C@H](NC(=O)OC)c5ccccc5)[nH]4)c4ccn-3c24)[nH]1)c1ccccc1` [Compound 3, Dimethyl (pyrrolo[3,2,1-kl]phenoxazine-3,8-diylbis{1H-imidazole-5,2-diyl(2S)pyrrolidine-2,1-diyl[(1R)-2-oxo-1-phenylethane-2,1-diyl]})biscarbamate], the EC50 in the test with HCV replicon 4a WT amounted to 0.04 nM; in the test with HCV replicon 1a WT it was 0.097 nM; in the test with HCV replicon 2a WT it was 0.006 nM; with HCV replicon 3a WT it was 0.019 nM; with HCV replicon 1b WT, 0.007 nM; with HCV replicon 1a Y93H, 348 nM.

For the compound `COC(=O)N[C@H](C(=O)N1CCC[C@H]1c1ncc(-c2ccc3c(c2)Oc2ccc(-c4cnc([C@@H]5CCCN5C(=O)[C@@H](NC(=O)OC)C5CC5)[nH]4)c4ccn-3c24)[nH]1)C1CC1` [Compound 4, Dimethyl (pyrrolo[3,2,1-kl]phenoxazine-3,8-diylbis{1H-imidazole-5,2-diyl(2S)-pyrrolidine-2,1-diyl[(1S)-1-cyclopropyl-2-oxoethane-2,1-diyl]})biscarbamate], the EC50 in the test with HCV replicon 4a WT amounted to 3.12 nM; with HCV replicon 1a WT, 0.007 nM; in the test on HCV replicon 2a WT, 0.012 nM; with HCV replicon 3a WT, 1.9 nM; with HCV replicon 1b WT, 0.006 nM; in the test on HCV replicon 1a Y93H, 64.4 nM.

For `COC(=O)N[C@H](C(=O)N1CCC[C@H]1c1ncc(-c2ccc3c(c2)-n2ccc4c(-c5cnc([C@@H]6CCCN6C(=O)[C@@H](NC(=O)OC)C(C)C)[nH]5)ccc(c42)O3)[nH]1)C(C)C` [Compound 5, Methyl [(2S)-1-{(2S)-2-[5-(3-{2-[(2S)-1-{(2S)-2-[(methoxycarbonyl)amino]-3-methyl-butanoyl}pyrrolidin-2-yl]-1H-imidazol-5-yl}pyrrolo[3,2,1-kl]phenoxazin-9-yl)-1H-imidazol-2-yl]pyrrolidin-1-yl}-3-methyl-1-oxobutan-2-yl]carbamate], the figures for the EC50 in the test with HCV replicon 1a WT, in the test on HCV replicon 2a WT and in the test on HCV replicon 1b WT were greater than 26 nM, 20 nM and 19 nM, respectively.

On to `COC(=O)N[C@H](C(=O)N1CCC[C@H]1c1ncc(-c2ccc3c(c2)Oc2cc(-c4cnc([C@@H]5CCCN5C(=O)[C@@H](NC(=O)OC)C(C)C)[nH]4)cc4c2N3CC4)[nH]1)C(C)C` [Compound 7, Methyl [(2S)-1-{(2S)-2-[5-(4-{2-[(2S)-1-{(2S)-2-[(methoxycarbonyl)amino]-3-methylbutanoyl}pyrrolidin-2-yl]-1H-imidazol-5-yl}-1,2-dihydropyrrolo[3,2,1-kl]phenoxazin-8-yl)-1H-imidazol-2-yl]pyrrolidin-1-yl}-3-methyl-1-oxobutan-2-yl]carbamate], for which the EC50 in the test on HCV replicon 4a WT is 1.05 nM; in the test with HCV replicon 1a WT, 0.1 nM; in the test on HCV replicon 2a WT, 0.063 nM; with HCV replicon 3a WT it was 1.1 nM; with HCV replicon 1b WT, 0.044 nM; with HCV replicon 1a Y93H it was 263 nM.

As to `COC(=O)N[C@H](C(=O)N1CC(F)(F)C[C@H]1c1ncc(-c2ccc3c(c2)Oc2ccc(-c4cnc([C@@H]5CC(F)(F)CN5C(=O)[C@@H](NC(=O)OC)C(C)C)[nH]4)c4ccn-3c24)[nH]1)C(C)C` [Compound 8, Methyl [(2S)-1-{(2S)-2-[5-(3-{2-[(2S)-4,4-difluoro-1-{(2S)-2-[(methoxycarbonyl)amino]-3-methylbutanoyl}pyrrolidin-2-yl]-1H-imidazol-5-yl}pyrrolo[3,2,1-kl]phenoxazin-8-yl)-1H-imidazol-2-yl]-4,4-difluoropyrrolidin-1-yl}-3-methyl-1-oxobutan-2-yl]carbamate], the concentration for a half-maximal effect (EC50) with HCV replicon 4a WT was found to be 0.019 nM; with HCV replicon 1a WT, 0.004 nM; with HCV replicon 3a WT it was 0.31 nM; with HCV replicon 1b WT, 0.001 nM; in the test with HCV replicon 1a Y93H, 11.5 nM.

On to `COC(=O)N[C@H](C(=O)N1C[C@H](F)C[C@H]1c1ncc(-c2ccc3c(c2)Oc2ccc(-c4cnc([C@@H]5C[C@@H](F)CN5C(=O)[C@@H](NC(=O)OC)C(C)C)[nH]4)c4ccn-3c24)[nH]1)C(C)C` [Compound 9, Methyl [(2S)-1-{(2S,4R)-4-fluoro-2-[5-(3-{2-[(2S,4R)-4-fluoro-1-{(2S)-2-[(methoxycarbonyl)amino]-3-methylbutanoyl}pyrrolidin-2-yl]-1H-imidazol-5-yl}pyrrolo[3,2,1-kl]phenoxazin-8-yl)-1H-imidazol-2-yl]pyrrolidin-1-yl}-3-methyl-1-oxobutan-2-yl]carbamate], for which the EC50 in the test on HCV replicon 4a WT came to 0.1 nM; with HCV replicon 1a WT, 0.01 nM; in the test on HCV replicon 3a WT, 1.5 nM; in the test with HCV replicon 1b WT, 0.005 nM; in the test on HCV replicon 1a Y93H, 27.5 nM.

Consider `COC(=O)N[C@H](C(=O)N1CCC[C@H]1c1ncc(-c2ccc3c(c2)Oc2cc(-c4cnc([C@@H]5CCCN5C(=O)[C@@H](NC(=O)OC)C(C)C)[nH]4)cc4c2N3CCC4)[nH]1)C(C)C` [Compound 11, Methyl [(2S)-1-{(2S)-2-[5-(5-{2-[(2S)-1-{(2S)-2-[(methoxycarbonyl)amino]-3-methylbutanoyl}pyrrolidin-2-yl]-1H-imidazol-5-yl}-2,3-dihydro-1H-pyrido[3,2,1-kl]phenoxazin-9-yl)-1H-imidazol-2-yl]pyrrolidin-1-yl}-3-methy-1-oxobutan-2-yl]carbamate], for which the half-maximal effective concentration (EC50) in the test on HCV replicon 4a WT is 1.02 nM; in the test with HCV replicon 1a WT, 0.1 nM; in the test on HCV replicon 2a WT, 0.345 nM; in the test on HCV replicon 3a WT, 10 nM; in the test on HCV replicon 1b WT, 0.031 nM; in the test with HCV replicon 1a Y93H, 504 nM.

In the case of `COC(=O)N[C@H](C(=O)N1CCC[C@H]1c1ncc(-c2cc3c4c(c2)Oc2ccc(-c5cnc([C@@H]6CCCN6C(=O)[C@@H](NC(=O)OC)C(C)C)[nH]5)cc2N4CCC3)[nH]1)C(C)C` [Compound 12, Methyl [(2S)-1-{(2S)-2-[5-(5-{2-[(2S)-1-{(2S)-2-[(methoxycarbonyl)amino]-3-methylbutanoyl}pyrrolidin-2-yl]-1H-imidazol-5-yl}-2,3-dihydro-1H-pyrido[3,2,1-kl]phenoxazin-10-yl)-1H-imidazol-2-yl]pyrrolidin-1-yl}-3-methyl-1-oxobutan-2-yl]carbamate], the EC50 in the test on HCV replicon 4a WT was found to be 0.13 nM; in the test with HCV replicon 1a WT, 0.056 nM; in the test on HCV replicon 2a WT, 0.002 nM; in the test on HCV replicon 3a WT, 0.375 nM; in the test with HCV replicon 1b WT it was 0.003 nM; with HCV replicon 1a Y93H, 115 nM.

Take `COC(=O)N[C@H](C(=O)N1CCC[C@H]1c1ncc(-c2cc3c4c(c2)Oc2ccc(-c5cnc([C@@H]6CCCN6C(=O)[C@@H](NC(=O)OC)C(C)C)[nH]5)cc2C4CO3)[nH]1)C(C)C` (stereo partly drawn) [Compound 15, Methyl [(2S)-1-{(2S)-2-[5-(4-{2-[(2S)-1-{(2S)-2-[(methoxycarbonyl)amino]-3-methylbutanoyl}pyrrolidin-2-yl]-1H-imidazol-5-yl}-1,10b-dihydrofuro[2,3,4-kl]xanthen-9-yl)-1H-imidazol-2-yl]pyrrolidin-1-yl}-3-methyl-1-oxobutan-2-yl]carbamate]: the EC50 in the test on HCV replicon 4a WT amounted to 0.39 nM; in the test with HCV replicon 1a WT, 0.06 nM; in the test with HCV replicon 3a WT it was 0.52 nM; in the test with HCV replicon 1b WT it was 0.004 nM; with HCV replicon 1a Y93H, 83 nM.

Take `COC(=O)N[C@H](C(=O)N1CC(F)(F)C[C@H]1c1ncc(-c2ccc3c(c2)Oc2ccc(-c4cnc([C@@H]5CC(F)(F)CN5C(=O)[C@@H](NC(=O)OC)C(C)C)[nH]4)c4c2N3CC4)[nH]1)C(C)C` [Compound 18]: the EC50 with HCV replicon 4a WT was 0.056 nM; with HCV replicon 1a WT, 0.009 nM; in the test with HCV replicon 2b WT, 40 nM; with HCV replicon 3a WT it was 0.936 nM; in the test on HCV replicon 1b WT it was 0.002 nM; in the test with HCV replicon 1a Y93H, 32 nM.
